Inconclusive results are not listed. Active and inactive are the calls of the source. How the calls were made is not given here.
These compounds were tested on C. albicans CaCi-8 + fluconazole, Alamar Blue growth, 48 h (assay: resistant C. albicans growth inhibition with fluconazole, dose response, CaCi-8 strain, Alamar Blue fluorescence (AID 2423)).

Structure (SMILES) | EC50
N#C/C(=C(/O)c1ccco1)c1nc2ccccc2[nH]1 | 676 nM
Cc1ccc(NC(=O)CNC(=O)c2ccc(Oc3ccccc3)cc2)nc1 | 440 nM
CC(C)(C)C(=O)NC(=S)NNC(=O)c1sc2ccccc2c1Cl | 360 nM
Cc1cc(NC(=O)COC(=O)[C@@H](NS(=O)(=O)c2ccc(Br)cc2)C(C)C)no1 | > 15000 nM (inactive)
COC(=O)/C(=N\Nc1ccc(Cl)cc1)Sc1nnc(-c2ccc(OC)cc2)n1C | > 16000 nM (inactive)
NC(=S)n1[nH]c(-c2ccccc2)c(N=Nc2ccccc2C(=O)N2CCOCC2)c1=O | 8430 nM
Cc1cc(Br)ccc1OCC(=O)NNC(=O)C(=O)Nc1ccccc1 | 718 nM
O=C(N/N=C/c1ccc(O)cc1O)c1ccc(CN2C(=O)c3cccc4cccc2c34)cc1 | 709 nM
O=C(NCC(=O)N(CC1CCCO1)C(C(=O)NC1CCCCC1)c1ccccc1)c1ccco1 (centres undefined) | > 15000 nM (inactive)
CC[n+]1c(/C=C/N(C)c2ccccc2)oc2ccccc21 | 7620 nM
S=c1nc[nH]c2c1cnn2Cc1ccccc1 | 2330 nM
C[N+]1(CC(=O)OC2CCCCCCCCCCC2)CCCC1 | 4940 nM
Cc1cccc(C(=O)NNC(=S)NC(=O)c2cccs2)c1 | 1460 nM
COc1ccc(NC(=O)NC(C)c2ccccc2)cc1 (centres undefined) | > 16000 nM (inactive)
COCCN1C(=O)C(O)=C(C(=O)c2ccco2)C1c1cccc(Oc2ccccc2)c1 (centres undefined) | 3840 nM
S=c1[nH]nc(-c2cccs2)n1/N=C/c1cccs1 | 1080 nM
COc1cccc(C(C(=O)NC2CCCC2)N(C(=O)c2ccco2)c2ccc(-n3cnnn3)c(C)c2)c1OC (centres undefined) | > 15000 nM (inactive)
COc1ccc(O)c(/C=N/NC(=O)c2ccc(N3CCCC3=O)cc2)c1 | > 16000 nM (inactive)
CC(=O)O/N=C/c1c(N2CCOCC2)n(C)c2ccccc12 | 403 nM
COc1ccc(NC(=O)c2cc([N+](=O)[O-])ccc2O)cc1 | 3920 nM
COc1cc(OC)cc(C(=O)NNC(=O)Cc2ccc(OC)c(S(=O)(=O)N3CCOCC3)c2)c1 | > 15000 nM (inactive)
CCN1/C(=C/C=C/c2oc3ccc(-c4ccccc4)cc3[n+]2CC)Oc2ccc(-c3ccccc3)cc21 | 589 nM

Structure (SMILES) | EC50
COC(=O)c1c(C)n(-c2ccccc2)c2ccc(O)cc12 | 3160 nM
c1ccc(-c2cccc(-c3ccccn3)n2)nc1 | 521 nM
CCc1ccc2c(c1)/C(=C/C(=O)c1cccs1)C(=O)N2 | 2380 nM
CN(C)S(=O)(=O)c1cccc(NC(=S)N/N=C/c2cc(Br)ccc2O)c1 | 3840 nM
O=c1[nH]n2c(C(F)(F)F)cc(C3CC3)nc2c1N=Nc1ccccc1 | 4250 nM
Cc1ccc(C)c(OC(=O)c2cncc(Br)c2)c1 | > 16000 nM (inactive)
O=C1N/C(=N\N=C\c2cccnc2)SC1Cc1ccc(SC(F)F)cc1 (centres undefined) | 3240 nM
O=S(=O)(Nc1nc(-c2ccccc2)cs1)c1cc(Cl)ccc1Cl | 2790 nM
CCOC(=O)c1c(NC(=O)CN2CCN(C(=O)c3ccco3)CC2)sc2c1CCCC2 | > 15000 nM (inactive)
O=C(NNC1=C(C(=O)C(F)(F)F)CCC1)c1ccc(Br)cc1 | 790 nM
CC(C)(C)NC(=S)N/N=C/c1cc(Br)c(O)c(Br)c1 | > 15000 nM (inactive)
CC(NC(=O)Nc1ccccc1F)C(C)(C)C (centres undefined) | > 16000 nM (inactive)
O=C(O)c1ccc(NC(=S)NC(=O)c2ccc(-c3ccccc3)cc2)cc1 | 3350 nM
Cc1cc(C)c(S(=O)(=O)Nc2cccc(-n3cnnn3)c2)c(C)c1 | 13000 nM
O=C(N/N=C/c1cc(Br)cc(Cl)c1O)c1ccc2c(c1)OCO2 | 2750 nM
COc1ccc(C(=O)Nc2ccccc2C(=O)Nc2ccccc2C(=O)O)cc1 | 7540 nM
CC1CCc2c(sc3ncnc(N4CCOCC4)c23)C1 (centres undefined) | > 16000 nM (inactive)
O=C(N/N=C/c1ccncc1)c1cc2ccccc2cc1O | > 15000 nM (inactive)
CC/C(=N/NC(=O)c1ccccc1O)c1c(C)[nH]n(-c2ccccc2)c1=O | 754 nM
Cn1c(N2CCOCC2)c(/C=N/OC(=O)c2ccc(F)cc2)c2ccccc21 | 630 nM
O=C(Oc1c(Cl)cc(Cl)c2cccnc12)c1cccc([N+](=O)[O-])c1 | 444 nM
CCc1nnc(NC(=O)CSc2nnc(CNc3cccc(C)c3)n2-c2ccccc2)s1 | > 15000 nM (inactive)

Structure (SMILES) | EC50
Cn1c(NN)nc2sc3c(c2c1=O)CCC3 | 10100 nM
COc1ccc(NS(=O)(=O)c2ccc3ccccc3c2)c2ncccc12 | 3790 nM
O=C(O/N=C1/CCSc2ccccc21)c1ccc(F)cc1 | > 15000 nM (inactive)
CCN1/C(=C/c2ccc3cccc(C)c3[n+]2CC)Sc2ccccc21 | < 120 nM
CC(=O)c1cnc2cc(-c3cccc(Br)c3)nn2c1C | > 15000 nM (inactive)
O=C(COc1ccc(Cl)cc1)NC1CCSC1=O (centres undefined) | > 16000 nM (inactive)
CCC(C)c1ccc(O)c(NC(=S)NC(=O)c2cccnc2)c1 (centres undefined) | 878 nM
O=C(CSc1nnc(-c2ccc(Br)cc2)o1)Nc1cccc2ccccc12 | 15600 nM
Nc1nc(-c2ccccc2)c(N=Nc2ccccc2Cl)s1 | 6250 nM
COc1ccc(C(=O)NNC(=S)NC(=O)c2ccccc2)cc1 | 2650 nM
Cc1cc(C)n(-c2nc(SCCN(C)C)c3c4c(sc3n2)CCCC4)n1 | 6430 nM
O=[N+]([O-])c1cc(CN2CCN(c3ccccc3)CC2)c(O)c2ncccc12 | 335 nM
Cc1nn(CC(=O)NCCCc2ccccc2)c(C)c1[N+](=O)[O-] | > 15000 nM (inactive)
Cc1noc2ncnc(Sc3ccc(Br)cc3)c12 | 2640 nM
Cc1ccccc1-n1c(=O)c(C#N)cc2c(=O)n3ccccc3nc21 | > 16000 nM (inactive)
Cc1ccc(C2(c3noc(CN4CCC(c5ccncc5)CC4)n3)CCCC2)cc1 | > 15000 nM (inactive)
CCC(=O)N1CCN(c2ccc(Cl)cc2NC(=O)c2ccc3c(c2)OCCO3)CC1 | 811 nM
S=C(Nc1ccccc1)Nc1nc2ccccc2n1CCOc1ccc(Cl)cc1 | 962 nM
Cc1ccc(C)c(SCC(=O)Nc2nnc(-c3ccccc3)o2)c1 | 2240 nM
CCOc1ccc(NC(=S)NNC(=O)c2ccc(Br)cc2)cc1 | 1560 nM
Cc1ccc2[nH]c(C)c(/C=C/c3cc[n+](C)cc3)c2c1 | 2910 nM
COc1ccc(C(=O)NC(=S)NNC(=O)c2cnccn2)cc1 | 3540 nM

Structure (SMILES) | EC50
CCCCN(C(=O)/C=C/c1ccco1)c1c(N)n(Cc2ccccc2)c(=O)[nH]c1=O | > 15000 nM (inactive)
CCOC(=O)c1ccc(NC(=O)Nc2ccn(C)n2)cc1 | 1510 nM
O=C1NC(=O)/C(=C\c2ccc(Br)o2)S1 | 1720 nM
O=S(=O)(c1ccc(Cl)cc1)N1CCN(Cc2ccc(O)c3ncccc23)CC1 | 2940 nM
Cc1ccc(-n2ncc(Br)c(Br)c2=O)cc1 | 855 nM
O=C(c1ccc(C(=O)N2CCCc3ccccc32)s1)N1CCCc2ccccc21 | 2990 nM
CCCn1c(=N)n(CC(=O)c2ccc([N+](=O)[O-])cc2)c2ccccc21 | > 16000 nM (inactive)
Cc1noc(/C=C/c2ccccn2)c1[N+](=O)[O-] | 1900 nM
COc1ccc(NC(=O)C(=O)NNC(=O)c2ccc(Cl)cc2Cl)cc1 | 888 nM
O=C(Nc1nc2ccc(S(=O)(=O)N3CCCCC3)cc2s1)c1ccncc1 | 1040 nM
CCN(CC)c1ccc(/C=N/NC(=O)c2ccco2)c(O)c1 | 2420 nM
O=c1[nH]c(SCc2ccccc2F)nc2ccccc12 | 2120 nM
Cc1ccnc(NC(c2cccnc2)c2ccc3cccnc3c2O)c1 (centres undefined) | 13100 nM
CCC(=O)NC(c1ccco1)c1cc(Cl)c2cccnc2c1O (centres undefined) | 788 nM
CC1=CC2=C(OC1N(C)C)c1cccc3cccc(c13)C2=O (centres undefined) | 9240 nM
COc1ccc2c(c1)c(/C=C/c1cc[n+](C)cc1)cn2C | 5950 nM
COc1ccnc(Oc2cccc(C(F)(F)F)c2)c1C(=O)N/C=N/OCc1ccccc1F | > 15000 nM (inactive)
CC[n+]1cc(C)ccc1/C=C/c1ccc(N(C)C)cc1 | 1410 nM
Cc1ccc(S(=O)(=O)NNC(=O)c2ccc(NC(=O)C3CC3)cc2)cc1 | > 15000 nM (inactive)
COc1ccc(-c2cc(C3CCN(Cc4cccc(C(F)(F)F)c4)CC3)[nH]n2)cc1 | 8130 nM
Cc1cccc(-n2nc(C(=O)c3ccco3)cc(-c3nc4ccccc4[nH]3)c2=N)c1 | 6090 nM
COc1ccc(-c2cc(-c3c(O)c(OC)c4occc4c3OC)[nH]n2)cc1OC | > 16000 nM (inactive)

Structure (SMILES) | EC50
O=C1c2ccccc2NC(c2ccc(-c3cccc(Cl)c3)o2)N1O (centres undefined) | 2000 nM
Cc1nc2c(=O)oc3ccccc3c2n1-c1ccccc1 | 2430 nM
CSc1ncc(Cl)c(C(=O)C(C#N)c2nc3c(C)cc(C)cc3c(=O)[nH]2)n1 (centres undefined) | > 16000 nM (inactive)
CC(C)c1ccc(OCC(=O)Nc2cccc(C(=O)Nc3ccccc3C(=O)O)c2)cc1 | > 15000 nM (inactive)
O=C(N/N=C/c1cc([N+](=O)[O-])ccc1O)c1ccc(COc2ccc3c(c2)CCC3)o1 | 915 nM
CC(C)N1CCc2c(sc(NC(=O)c3nc4ccccc4s3)c2C(N)=O)C1 | 239 nM
CCCC(=O)NC(c1cccs1)c1cc(Cl)c2cccnc2c1O (centres undefined) | 729 nM
COc1ccc(CCn2c(C)cc3c(c2=O)C(c2ccc4c(c2)OCO4)C(C#N)=C(N)O3)cc1OC (centres undefined) | > 16000 nM (inactive)
O=C(/C=C/c1ccco1)Oc1cc(Br)cc(/C=N/NC(=O)c2ccccc2O)c1 | 3320 nM
CCn1c(=O)c(C(=O)Nc2ncccc2C)c(O)c2ccccc21 | 3360 nM
Cc1cc([N+](=O)[O-])c2ccccc2[n+]1[O-] | 195 nM
Cc1cc(Oc2ccccc2)nc(-c2ccccc2O)n1 | > 15000 nM (inactive)
COc1cc(/C=C(\C#N)c2nc3ccccc3s2)cc([N+](=O)[O-])c1O | > 15000 nM (inactive)
COc1cccc(CN(C(=O)c2cc3ccccc3oc2=O)C2CC2)c1 | > 15000 nM (inactive)
Cc1ccc(S(=O)(=O)CC(C)N2CCOCC2)c(S(=O)(=O)CC(C)N2CCOCC2)c1 (centres undefined) | > 16000 nM (inactive)
Nc1nnnn1/N=C/c1cccc(Oc2ccccc2)c1 | 3450 nM
COc1ccc(C(=O)On2c(-c3ccc(Br)cc3)nc3ccccc3c2=O)cc1 | 1110 nM
O=[N+]([O-])c1ccc(N/N=C/c2ccc(O)c(O)c2O)c(S(=O)(=O)N2CCOCC2)c1 | 8260 nM
Cc1cc(C)n(-c2nc(NCCN(C)C)c3c4c(sc3n2)CCCC4)n1 | 5130 nM
COc1ccc(OC)c(-n2c(CN3CCC(C(N)=O)CC3)nc3ccccc3c2=O)c1 | > 15000 nM (inactive)
CN(C)CCCNc1cc(C(C)(C)C)nc2c(-c3ccc(Cl)cc3)cnn12 | 5200 nM

Reference: PubChem BioAssay AID2423 (Broad Institute, 2010)
